According to US20040142971A1, “BENZOTHIOPHENE COMPOUNDS HAVING ANTIINFECTIVE ACTIVITY” (GeneSoft, Inc., priority 2001, published 2004):

Tests used:
Test in all cases: MIC, NCCLS broth microdilution
[1] = test system: S. pneumoniae ATCC 51422 (penicillin resistant strain, PRSP); type: cell-based, Streptococcus pneumoniae; conditions: H = S. pneumoniae ATCC 51422
Description: (§1) In vitro biological activity data were collected for a variety of microorganisms, including Bacillus cereus (ATCC 11778), Staphylococcus aureus (ATCC 27660 (a methicillin resistant strain (MRSA), ATCC 33591 and ATCC 43300); ATCC 13709, a methicillin sensitive strain (MSSA)); Streptococcus pneumoniae (ATCC 51422, a penicillin resistant strain (PRSP)), Enterococcus faecium (ATCC 51559, a vancomycin resistant strain (VRE)), and Staphylococcus epidermidis (ATCC 700586, a methycillin resistant strain (MRSE)). Additionally, antifungal activity data were collected for Candida albicans (ATCC 38247). Minimal inhibition concentrations (MIC's) were determined using the National Committee for Clinical Laboratory Standards (NCCLS) broth microdilution assay in microtiter plates, as set forth in: (1) the guidelines of the National Committee for Clinical Laboratory Standards (NCCLS) Document M7-A4 (NCCLS, 1997); (2) the guidelines of the National Committee for Clinical Laboratory Standards (NCCLS) Document M11-A4 (NCCLS, 1997); and (3) the guidelines and reference method of the National Committee for Clinical Laboratory Standards (NCCLS) Document M27-T (NCCLS, 1995). For antifungal essays, the method recommended in Murray, PR., 1995 Manual of Clinical Microbiology (ASM Press, Washington, D.C.), was employed.

[2] = test system: E. faecium ATCC 51559 (vancomycin resistant strain, VRE); type: cell-based, Enterococcus faecium; conditions: B = E. faecium ATCC 51559
Description: as §1

S. aureus ATCC 33591 = type: cell-based, Staphylococcus aureus; conditions: E = S. aureus ATCC 33591
Description: as §1

[3] = test system: S. aureus ATCC 27660 (methicillin resistant strain, MRSA); type: cell-based, Staphylococcus aureus; conditions: D = S. aureus ATCC 27660
Description: as §1

[4] = test system: S. aureus ATCC 13709 (methicillin sensitive strain, MSSA); type: cell-based, Staphylococcus aureus; conditions: C = S. aureus ATCC 13709
Description: as §1

[5] = test system: S. epidermidis ATCC 700586 (methycillin resistant strain, MRSE); type: cell-based, Staphylococcus epidermidis; conditions: G = S. epidermidis ATCC 700586
Description: as §1

B. Cereus ATCC 11778 = type: cell-based, Bacillus cereus; conditions: A = B. Cereus ATCC 11778
Description: as §1

Compound	Minimum Inhibitory Concentration (MIC) [1]	Minimum Inhibitory Concentration (MIC) [2]	Minimum Inhibitory Concentration (MIC) (S. aureus ATCC 33591)	Minimum Inhibitory Concentration (MIC) [3]	Minimum Inhibitory Concentration (MIC) [4]	Minimum Inhibitory Concentration (MIC) [5]	Minimum Inhibitory Concentration (MIC) (B. Cereus ATCC 11778)
Cc1cc(NC(=O)c2cc(NC(=O)c3cc(NC(=O)c4cc5ccccc5cn4)cn3C)cn2CCN2CCOCC2)sn1 [Ib-63]	+++ (+++ = MIC ≦ 4)	+++ (+++ = MIC ≦ 4)	+++ (+++ = MIC ≦ 4)	+++ (+++ = MIC ≦ 4)	+++ (+++ = MIC ≦ 4)	+++ (+++ = MIC ≦ 4)	+++ (+++ = MIC ≦ 4)
COCn1cc(NC(=O)c2cc3ccccc3cn2)cc1C(=O)Nc1cc(C(=O)Nc2cc(C(=O)NCCN3CCOCC3)n(C)c2)n(C)c1 [Ib-72]	+ (+ = MIC from 12 to 32, inclusive)	+++ (+++ = MIC ≦ 4)	+++ (+++ = MIC ≦ 4)	+++ (+++ = MIC ≦ 4)	+++ (+++ = MIC ≦ 4)	+++ (+++ = MIC ≦ 4)	+++ (+++ = MIC ≦ 4)
Cn1cc(NC(=O)c2cc(NC(=O)c3cc(NC(=O)c4cc5ccccc5cn4)c[nH]3)cn2C)cc1C(=O)NCCc1ccccn1 [Ib-70]	+++ (+++ = MIC ≦ 4)	+++ (+++ = MIC ≦ 4)	+++ (+++ = MIC ≦ 4)	+++ (+++ = MIC ≦ 4)	+++ (+++ = MIC ≦ 4)	+++ (+++ = MIC ≦ 4)	+++ (+++ = MIC ≦ 4)
Cn1cc(NC(=O)c2cc(NC(=O)c3cc(NC(=O)c4cc5ccccc5cn4)c[nH]3)cn2C)cc1C(=O)NCCN1CCC(F)CC1 [Ib-71]	+++ (+++ = MIC ≦ 4)	+++ (+++ = MIC ≦ 4)	+++ (+++ = MIC ≦ 4)	+++ (+++ = MIC ≦ 4)	+++ (+++ = MIC ≦ 4)	+++ (+++ = MIC ≦ 4)	+++ (+++ = MIC ≦ 4)
Cc1cc(NC(=O)c2cc(NC(=O)c3cc(NC(=O)c4cc5ccccc5cn4)cn3C)cn2CCCN(C)C)sn1 [Ib-66]	+++ (+++ = MIC ≦ 4)	+++ (+++ = MIC ≦ 4)	+++ (+++ = MIC ≦ 4)	+++ (+++ = MIC ≦ 4)	+++ (+++ = MIC ≦ 4)	+++ (+++ = MIC ≦ 4)	+++ (+++ = MIC ≦ 4)
Cn1cc(NC(=O)c2cc(NC(=O)c3sc4cc5c(cc4c3Cl)OCO5)cn2C)cc1C(=O)NCCN1CCOCC1 [Ib-20e]	+++ (+++ = MIC ≦ 4)	+++ (+++ = MIC ≦ 4)	+++ (+++ = MIC ≦ 4)	+++ (+++ = MIC ≦ 4)	+++ (+++ = MIC ≦ 4)	+++ (+++ = MIC ≦ 4)	+++ (+++ = MIC ≦ 4)
Cn1cc(NC(=O)c2cc(NC(=O)c3cc(NC(=O)c4cc5ccccc5cn4)c[nH]3)cn2C)cc1C(=O)NCCN1CCCCC1 [Ib-62]	+++ (+++ = MIC ≦ 4)	+++ (+++ = MIC ≦ 4)	+++ (+++ = MIC ≦ 4)	+++ (+++ = MIC ≦ 4)	+++ (+++ = MIC ≦ 4)	+++ (+++ = MIC ≦ 4)	+ (+ = MIC from 12 to 32, inclusive)
CN1CCN(CCCNC(=O)c2cc(NC(=O)c3sc4cc5c(cc4c3Cl)OCO5)cn2C)CC1 [Ib-20r]	+++ (+++ = MIC ≦ 4)	+++ (+++ = MIC ≦ 4)	+++ (+++ = MIC ≦ 4)	+++ (+++ = MIC ≦ 4)	+++ (+++ = MIC ≦ 4)	+++ (+++ = MIC ≦ 4)	+++ (+++ = MIC ≦ 4)
Cc1cc(NC(=O)c2cc(NC(=O)c3nc(NC(=O)c4cc5ccccc5cn4)cn3C)cn2CCN2CCOCC2)sn1 [Ib-77]	+++ (+++ = MIC ≦ 4)	+++ (+++ = MIC ≦ 4)	+++ (+++ = MIC ≦ 4)	+++ (+++ = MIC ≦ 4)	+++ (+++ = MIC ≦ 4)	+++ (+++ = MIC ≦ 4)	+++ (+++ = MIC ≦ 4)
Cn1cc(NC(=O)c2cc(NC(=O)c3cc(NC(=O)c4cc5ccccc5cn4)cn3C)c[nH]2)cc1C(=O)NCCN1CCOCC1 [Ib-67]	+++ (+++ = MIC ≦ 4)	+++ (+++ = MIC ≦ 4)	+++ (+++ = MIC ≦ 4)	+++ (+++ = MIC ≦ 4)	+++ (+++ = MIC ≦ 4)	+++ (+++ = MIC ≦ 4)	+++ (+++ = MIC ≦ 4)
Cn1cc(NC(=O)c2cc(NC(=O)c3cc(NC(=O)c4cc5ccccc5cn4)c[nH]3)cn2C)cc1C(=O)NCCc1ccccn1 [Ib-69]	+++ (+++ = MIC ≦ 4)	+++ (+++ = MIC ≦ 4)	+++ (+++ = MIC ≦ 4)	+++ (+++ = MIC ≦ 4)	+++ (+++ = MIC ≦ 4)	+++ (+++ = MIC ≦ 4)	>32 µg/mL
Cn1cc(NC(=O)c2cc(NC(=O)c3cc(NC(=O)c4sc5cc6c(cc5c4Cl)OCO6)cn3C)cn2C)cc1C(=O)NCCN1CCCC1 [Ib-20g]	+++ (+++ = MIC ≦ 4)		+++ (+++ = MIC ≦ 4)	+++ (+++ = MIC ≦ 4)	+++ (+++ = MIC ≦ 4)	+++ (+++ = MIC ≦ 4)	+++ (+++ = MIC ≦ 4)
Cn1cc(NC(=O)c2cc(NC(=O)c3cc(NC(=O)c4cc5ccccc5cn4)c[nH]3)cn2C)cc1C(=O)NCCc1ccncc1 [Ib-76]		+++ (+++ = MIC ≦ 4)	+++ (+++ = MIC ≦ 4)	+++ (+++ = MIC ≦ 4)	+++ (+++ = MIC ≦ 4)	+++ (+++ = MIC ≦ 4)	+++ (+++ = MIC ≦ 4)
Cn1cc(NC(=O)c2cc(NC(=O)c3cc(NC(=O)c4cc5ccccc5cn4)cn3C)cn2CCN2CCOCC2)cc1C(=O)NCCN1CCOCC1 [Ib-57]			+++ (+++ = MIC ≦ 4)	+++ (+++ = MIC ≦ 4)	+++ (+++ = MIC ≦ 4)		+++ (+++ = MIC ≦ 4)
